Molecules are shown by their SMILES. Active and inactive are the calls of the source. The calls are words filed in the database; no cut-off is given here.

Data on one compound can be found in ChEMBL document CHEMBL5532761, “Rosavin improves insulin resistance and alleviates hepatic and kidney damage via modulating the cGAS-STING pathway and autophagy signaling in HFD/STZ-induced T2DM animals” (2024).

The test system of experiment [1] is Rattus norvegicus. Briefly: Antidiabetic activity in high fat diet-STZ induced diabetic Wistar rat model assessed as AST level at 10 mg/kg, ip pretreated with high fat diet for 4 weeks followed by 8 hrs fasting after STZ administration and measured 4 weeks after compound treatment (reference value: 136.3 +/- 22.8 IU/L). It is filed as functional.
For experiment [2], the system named is Rattus norvegicus. Briefly: Antidiabetic activity in high fat diet-STZ induced diabetic Wistar rat model assessed as mean area percentage of LC3B in liver at 10 mg/kg, ip pretreated with high fat diet for 4 weeks followed by 8 hrs fasting after STZ administration and measured after 4 weeks of compound treatment by immunohistochemistry based microscopic analysis (reference value: 0.742 +/- 0.143 %). It counts as functional.

In experiment [3] the test system is Rattus norvegicus. Briefly: Antidiabetic activity in high fat diet-STZ induced diabetic Wistar rat model assessed as increase in body weight at 10 to 30 mg/kg, ip pretreated with high fat diet for 4 weeks followed by 8 hrs fasting after STZ administration and measured 4 weeks after compound treatment. It is filed as functional, organism-based. Conditions: dose 10-30 mg/kg.

For experiment [4], the system named is Rattus norvegicus. Description: Antidiabetic activity in high fat diet-STZ induced diabetic Wistar rat model assessed as creatinine level at 20 mg/kg, ip pretreated with high fat diet for 4 weeks followed by 8 hrs fasting after STZ administration and measured 4 weeks after compound treatment (reference value: 3.88 +/- 0.502 mg%). It is filed as functional.

In experiment [5] the test system is Rattus norvegicus. Description: Antidiabetic activity in ip dosed high fat diet-STZ induced diabetic Wistar rat model assessed as reduction of STING mRNA expression in adipose tissue pretreated with high fat diet for 4 weeks followed by 8 hrs fasting after STZ administration and measured 4 weeks after compound treatment by RT-qPCR analysis. It counts as functional, organism-based. The conditions noted are these: dose 10-30 mg/kg.

In experiment [6] the test system is Rattus norvegicus. Description: Antidiabetic activity in high fat diet-STZ induced diabetic Wistar rat model assessed as protection against vacuolar changes throughout hepatic lobules at 10 mg/kg, ip pretreated with high fat diet for 4 weeks followed by 8 hrs fasting after STZ administration and measured 4 weeks after compound treatment by hematoxylin and eosin staining based microscopic analysis. It is filed as functional, organism-based.

For experiment [7], the system named is Rattus norvegicus. Description: Antidiabetic activity in high fat diet-STZ induced diabetic Wistar rat model assessed as cholesterol level at 20 mg/kg, ip pretreated with high fat diet for 4 weeks followed by 8 hrs fasting after STZ administration and measured 4 weeks after compound treatment (reference value: 10.39 +/- 1.3 mmol/L). It counts as functional.

The test system of experiment [8] is Rattus norvegicus. Briefly: Antidiabetic activity in high fat diet-STZ induced diabetic Wistar rat model assessed as increase in AC074117.2 lncRNA expression in kidney at 10 to 30 mg/kg, ip pretreated with high fat diet for 4 weeks followed by 8 hrs fasting after STZ administration and measured 4 weeks after compound treatment by RT-qPCR analysis. It counts as functional, organism-based. The conditions noted are these: dose 10-30 mg/kg.

Experiment [9] has as its system Rattus norvegicus. Briefly: Antidiabetic activity in high fat diet-STZ induced diabetic Wistar rat model assessed as reduction in inflammatory cell infiltrates in liver at 30 mg/kg, ip pretreated with high fat diet for 4 weeks followed by 8 hrs fasting after STZ administration and measured 4 weeks after compound treatment by hematoxylin and eosin staining based microscopic analysis. It counts as functional, organism-based.

In experiment [10] the test system is Rattus norvegicus. Description: Antidiabetic activity in high fat diet-STZ induced diabetic Wistar rat model assessed as mean area percentage of TNFalpha in kidney at 30 mg/kg, ip pretreated with high fat diet for 4 weeks followed by 8 hrs fasting after STZ administration and measured after 4 weeks of compound treatment by immunohistochemistry based microscopic analysis (reference value: 24 +/- 1.5 %). It counts as functional.

Experiment [11] has as its system Rattus norvegicus. Briefly: Antidiabetic activity in ip dosed high fat diet-STZ induced diabetic Wistar rat model assessed as reduction of ZBP1 mRNA expression in liver pretreated with high fat diet for 4 weeks followed by 8 hrs fasting after STZ administration and measured 4 weeks after compound treatment by RT-qPCR analysis. It is filed as functional, organism-based. The conditions noted are these: dose 10-30 mg/kg.

The subject of experiment [12] is Rattus norvegicus. Description: Antidiabetic activity in high fat diet-STZ induced diabetic Wistar rat model assessed as increase in AC074117.2 lncRNA expression in liver at 10 to 30 mg/kg, ip pretreated with high fat diet for 4 weeks followed by 8 hrs fasting after STZ administration and measured 4 weeks after compound treatment by RT-qPCR analysis. It is filed as functional, organism-based. Conditions: dose 10-30 mg/kg.

For experiment [13], the system named is Rattus norvegicus. Briefly: Antidiabetic activity in high fat diet-STZ induced diabetic Wistar rat model assessed as reduction in persistent tubular dilation in kidney at 20 mg/kg, ip pretreated with high fat diet for 4 weeks followed by 8 hrs fasting after STZ administration and measured 4 weeks after compound treatment by hematoxylin and eosin staining based microscopic analysis. It counts as functional, organism-based.

Experiment [14] has as its system Rattus norvegicus. Description: Antidiabetic activity in ip dosed high fat diet-STZ induced diabetic Wistar rat model assessed as reduction of miR-1976 expression in kidney pretreated with high fat diet for 4 weeks followed by 8 hrs fasting after STZ administration and measured 4 weeks after compound treatment by RT-qPCR analysis. It counts as functional, organism-based. Conditions: dose 10-30 mg/kg.

Experiment [15] concerns Rattus norvegicus. Description: Antidiabetic activity in high fat diet-STZ induced diabetic Wistar rat model assessed as reduction in tubular degenerative changes in kidney at 10 mg/kg, ip pretreated with high fat diet for 4 weeks followed by 8 hrs fasting after STZ administration and measured 4 weeks after compound treatment by hematoxylin and eosin staining based microscopic analysis. It is filed as functional, organism-based.

Experiment [16] has as its system Rattus norvegicus. Briefly: Antidiabetic activity in high fat diet-STZ induced diabetic Wistar rat model assessed as cholesterol level at 10 mg/kg, ip pretreated with high fat diet for 4 weeks followed by 8 hrs fasting after STZ administration and measured 4 weeks after compound treatment (reference value: 10.39 +/- 1.3 mmol/L). It counts as functional.
The test system of experiment [17] is Rattus norvegicus. Briefly: Antidiabetic activity in ip dosed high fat diet-STZ induced diabetic Wistar rat model assessed as reduction of ZBP1 mRNA expression in kidney pretreated with high fat diet for 4 weeks followed by 8 hrs fasting after STZ administration and measured 4 weeks after compound treatment by RT-qPCR analysis. It counts as functional, organism-based. Conditions: dose 10-30 mg/kg.

Experiment [18] has as its system Rattus norvegicus. Description: Antidiabetic activity in high fat diet-STZ induced diabetic Wistar rat model assessed as LDL-cholesterol level at 10 mg/kg, ip pretreated with high fat diet for 4 weeks followed by 8 hrs fasting after STZ administration and measured 4 weeks after compound treatment (reference value: 6.54 +/- 0.918 mmol/L). It counts as functional.

For experiment [19], the system named is Rattus norvegicus. Briefly: Antidiabetic activity in high fat diet-STZ induced diabetic Wistar rat model assessed as urine albumin to creatinine ratio at 10 mg/kg, ip pretreated with high fat diet for 4 weeks followed by 8 hrs fasting after STZ administration and measured 4 weeks after compound treatment (reference value: 87.13 +/- 9.75 mg/g). It is filed as functional.

`O[C@@H]1[C@@H](O)[C@H](OC/C=C/c2ccccc2)O[C@H](CO[C@@H]2OC[C@H](O)[C@H](O)[C@H]2O)[C@H]1O`: the Activity with Rattus norvegicus [1] is 83.63 IU/L; in the experiment on Rattus norvegicus [2], 2.22%; in the experiment with Rattus norvegicus [4], 1.51 mg%; in the experiment on Rattus norvegicus [5], “Dose-Dependent Effect”; with Rattus norvegicus [7], 4.27 mmol/L; in the experiment on Rattus norvegicus [10] it was 3.98%. Besides, the Activity result in the experiment with Rattus norvegicus [11] is “Dose-Dependent Effect”; in the experiment with Rattus norvegicus [14], “Dose-Dependent Effect”; with Rattus norvegicus [16], 6.09 mmol/L; in the experiment with Rattus norvegicus [17] it was “Dose-Dependent Effect”; in the experiment on Rattus norvegicus [18] it was 3.19 mmol/L; with Rattus norvegicus [19], 50.75 mg/g. In addition, the result with Rattus norvegicus [3], in the experiment on Rattus norvegicus [8], in the experiment on Rattus norvegicus [9], with Rattus norvegicus [12] and in the experiment on Rattus norvegicus [13] was Active. The result in the experiment on Rattus norvegicus [6] and in the experiment with Rattus norvegicus [15] was inactive.
